Source: patent US11001872B2, “Designing customized protein-specific buffer system” (priority 2015, dated 2021)

Assays:
[1] = test system: protein sample; test: Protein stability screen: protein melting point temperature in MES/BTP buffer mixture; assay type: physicochemical; conditions: Hoefmeister Series screen; higher Tm
From the text: In one embodiment, the present invention contemplates a method comprising a physiologic buffer mixture having a temperature-stable pKa to identify test compounds that increase stability of a sample protein by performing a protein melting point temperature screen. […] Although it is not necessary to understand the mechanism of an invention it is believed that a protein stability screen acts to define the bulk properties of a solution system (i.e. impact of pH, ionic strength, buffer etc.) and not just one specific component like most of the other screening conditions. The buffer system also acts as an internal control that simultaneously compares new and old conditions under identical conditions. Although commonly used previously, a urea stability test provides validation and verification of all testing parameters by comparative analysis with historical literature. DMSO screening allows for the nomination of conditions where protein compounds are usually insoluble (e.g., for example, drug binding studies) to identify the proper use of DMSO to solubilize these compounds without effecting the performance of the intended assay.
See, FIG. 1. […] See, FIG. 3. […] See, FIG. 4. […] See, FIG. 5. […] See, FIG. 6.
A metal ion screen was performed that compared the relative effects of five (5) different metal chloride ions, each at two different concentrations. See, FIG. 7. […] See, FIG. 8.
In one embodiment, the kit instructions comprise the following steps: • i) pre-chill the RT-PCR plate at 4° C. for 15-30 minutes prior to the addition of reagents and/or protein sample to each of the wells. • ii) The dye vial and kit plates should be stored at −20° C. and away from light until the time of use. • iii) Add 5 μl of dye to 500 μl of protein sample. The dye to protein ratio can be modified to any particular protein. For example, smaller proteins or proteins with a small hydrophobic core may require an increased dye concentration. • iv) Transfer 5 μl of each solution from the well plate to a corresponding well of the RT-PCR plate. • v) Add 5 μl of the protein/dye mixture to each well of the RT-PCR plate (>0.5 mg/ml). • vi) Mix the solutions by pipetting up and down (˜5 times). • a) gently placing all solutions at the bottom of the avoids subsequent plate centrifugation. • vii) Seal the RT-PCR plate. • viii) Immediately load the TR-PCR plate into the instrument and begin the programmed heating schedule (approximate timeframe=62 minutes), for example: • a) Heat to 20 C • b) Ramp to 90 C in 0.5 C increments. • c) Ramp to 4 C with a two minute schedule. • ix) Upload stored data file to a designated website (e.g., for example, caymanchem.com/deltatm) and follow the instructions.

[2] = test system: protein sample; test: Protein quality control screen: melting point temperature vs pH and NaCl concentration; assay type: physicochemical
From the text: In one embodiment, the present invention contemplates a method comprising a protein quality control screen. Although it is not necessary to understand the mechanism of an invention, it is believed that a quality control screen may be used to analyze: i) comparison of protein state prior to storage and post storage; ii) protein synthesis/purification lot-to-lot comparison; and iii) protein synthesis/purification batch testing. In one embodiment, the protein quality control screen measures protein melting point temperature while varying both pH concentration and ionic strength (e.g., for example, using a sodium chloride dose response curve). See, Table 1.
In one embodiment, a three dimensional map of the protein melting point temperatures is created by plotting the melting point determinations relative to pH and ionic strength. See. FIG. 15.

[Cl-].[Na+] [sodium chloride]
effect on protein stability (Tm) [1]: improved the stability of the protein | protein melting point temperature ([2]; pH 5, NaCl Concentration 0.125): 73 °C | protein melting point temperature ([2]; pH 5, NaCl Concentration 0.25): 73.5 °C | protein melting point temperature ([2]; pH 5, NaCl Concentration 0.5): 74.5 °C | protein melting point temperature ([2]; pH 5, NaCl Concentration 0.75): 76 °C | protein melting point temperature ([2]; pH 5, NaCl Concentration 1): 76.5 °C | protein melting point temperature ([2]; pH 5, NaCl Concentration 1.25): 77 °C | protein melting point temperature ([2]; pH 5, NaCl Concentration 1.5): 77 °C | protein melting point temperature ([2]; pH 5, NaCl Concentration 1.75): 76.5 °C | protein melting point temperature ([2]; pH 5, NaCl Concentration 2): 77 °C | protein melting point temperature ([2]; pH 5.5, NaCl Concentration 0.125): 75 °C | protein melting point temperature ([2]; pH 5.5, NaCl Concentration 0.25): 75 °C | protein melting point temperature ([2]; pH 5.5, NaCl Concentration 0.5): 75 °C | protein melting point temperature ([2]; pH 5.5, NaCl Concentration 0.75): 76 °C | protein melting point temperature ([2]; pH 5.5, NaCl Concentration 1): 76.5 °C | protein melting point temperature ([2]; pH 5.5, NaCl Concentration 1.25): 77 °C | protein melting point temperature ([2]; pH 5.5, NaCl Concentration 1.5): 77 °C | protein melting point temperature ([2]; pH 5.5, NaCl Concentration 1.75): 77.5 °C | protein melting point temperature ([2]; pH 5.5, NaCl Concentration 2): 77.5 °C | protein melting point temperature ([2]; pH 6, NaCl Concentration 0.125): 75 °C | protein melting point temperature ([2]; pH 6, NaCl Concentration 0.25): 76 °C | protein melting point temperature ([2]; pH 6, NaCl Concentration 0.5): 76 °C | protein melting point temperature ([2]; pH 6, NaCl Concentration 0.75): 76.5 °C | protein melting point temperature ([2]; pH 6, NaCl Concentration 1): 77 °C | protein melting point temperature ([2]; pH 6, NaCl Concentration 1.25): 77 °C | protein melting point temperature ([2]; pH 6, NaCl Concentration 1.5): 77 °C | protein melting point temperature ([2]; pH 6, NaCl Concentration 1.75): 78 °C | protein melting point temperature ([2]; pH 6, NaCl Concentration 2): 77.5 °C | protein melting point temperature ([2]; pH 6.5, NaCl Concentration 0.125): 76 °C | protein melting point temperature ([2]; pH 6.5, NaCl Concentration 0.25): 76.5 °C | protein melting point temperature ([2]; pH 6.5, NaCl Concentration 0.5): 76.5 °C | protein melting point temperature ([2]; pH 6.5, NaCl Concentration 0.75): 77 °C | protein melting point temperature ([2]; pH 6.5, NaCl Concentration 1): 77.5 °C | protein melting point temperature ([2]; pH 6.5, NaCl Concentration 1.25): 77.5 °C | protein melting point temperature ([2]; pH 6.5, NaCl Concentration 1.5): 77.5 °C | protein melting point temperature ([2]; pH 6.5, NaCl Concentration 1.75): 78 °C | protein melting point temperature ([2]; pH 6.5, NaCl Concentration 2): 78 °C | protein melting point temperature ([2]; pH 7, NaCl Concentration 0.125): 76 °C | protein melting point temperature ([2]; pH 7, NaCl Concentration 0.25): 76.5 °C | protein melting point temperature ([2]; pH 7, NaCl Concentration 0.5): 77 °C | protein melting point temperature ([2]; pH 7, NaCl Concentration 0.75): 77.5 °C | protein melting point temperature ([2]; pH 7, NaCl Concentration 1): 77.5 °C | protein melting point temperature ([2]; pH 7, NaCl Concentration 1.25): 77.5 °C | protein melting point temperature ([2]; pH 7, NaCl Concentration 1.5): 77.5 °C | protein melting point temperature ([2]; pH 7, NaCl Concentration 1.75): 77 °C | protein melting point temperature ([2]; pH 7, NaCl Concentration 2): 77 °C | protein melting point temperature ([2]; pH 7.5, NaCl Concentration 0.125): 76.5 °C | protein melting point temperature ([2]; pH 7.5, NaCl Concentration 0.25): 77.5 °C | protein melting point temperature ([2]; pH 7.5, NaCl Concentration 0.5): 77.5 °C | protein melting point temperature ([2]; pH 7.5, NaCl Concentration 0.75): 78 °C | protein melting point temperature ([2]; pH 7.5, NaCl Concentration 1): 77.5 °C | protein melting point temperature ([2]; pH 7.5, NaCl Concentration 1.25): 76.5 °C | protein melting point temperature ([2]; pH 7.5, NaCl Concentration 1.5): 76 °C | protein melting point temperature ([2]; pH 7.5, NaCl Concentration 1.75): 76 °C | protein melting point temperature ([2]; pH 7.5, NaCl Concentration 2): 75 °C | protein melting point temperature ([2]; pH 8, NaCl Concentration 0.125): 75.5 °C | protein melting point temperature ([2]; pH 8, NaCl Concentration 0.25): 77.5 °C | protein melting point temperature ([2]; pH 8, NaCl Concentration 0.5): 76.5 °C | protein melting point temperature ([2]; pH 8, NaCl Concentration 0.75): 77.5 °C | protein melting point temperature ([2]; pH 8, NaCl Concentration 1): 76.5 °C | protein melting point temperature ([2]; pH 8, NaCl Concentration 1.25): 76.5 °C | protein melting point temperature ([2]; pH 8, NaCl Concentration 1.5): 76 °C | protein melting point temperature ([2]; pH 8, NaCl Concentration 1.75): 75 °C | protein melting point temperature ([2]; pH 8, NaCl Concentration 2): 74.5 °C | protein melting point temperature ([2]; pH 8.5, NaCl Concentration 0.125): 75 °C | protein melting point temperature ([2]; pH 8.5, NaCl Concentration 0.25): 75.5 °C | protein melting point temperature ([2]; pH 8.5, NaCl Concentration 0.5): 76 °C | protein melting point temperature ([2]; pH 8.5, NaCl Concentration 0.75): 77 °C | protein melting point temperature ([2]; pH 8.5, NaCl Concentration 1): 76 °C | protein melting point temperature ([2]; pH 8.5, NaCl Concentration 1.25): 75 °C | protein melting point temperature ([2]; pH 8.5, NaCl Concentration 1.5): 75 °C | protein melting point temperature ([2]; pH 8.5, NaCl Concentration 1.75): 75 °C | protein melting point temperature ([2]; pH 8.5, NaCl Concentration 2): 74.5 °C | protein melting point temperature ([2]; pH 9, NaCl Concentration 0.125): 75 °C | protein melting point temperature ([2]; pH 9, NaCl Concentration 0.25): 75 °C | protein melting point temperature ([2]; pH 9, NaCl Concentration 0.5): 75.5 °C | protein melting point temperature ([2]; pH 9, NaCl Concentration 0.75): 75 °C | protein melting point temperature ([2]; pH 9, NaCl Concentration 1): 75 °C | protein melting point temperature ([2]; pH 9, NaCl Concentration 1.25): 75 °C | protein melting point temperature ([2]; pH 9, NaCl Concentration 1.5): 75 °C | protein melting point temperature ([2]; pH 9, NaCl Concentration 1.75): 74.5 °C | protein melting point temperature ([2]; pH 9, NaCl Concentration 2): 74 °C
